Series [1] is described as follows: Example 2B: similar metabolism analysis of further deuterated ibogaine analogs. In kind it is in vitro ADME. The conditions noted are these: present tense, no data. Here is the method: A similar analysis is performed with each of CD2HO-ibogamine, CDH2O-ibogamine, CD3CD2O-ibogamine, CD3CH2O-ibogamine, CH3CD2O-ibogamine and CH3CDHO-ibogamine.
Series [2] is described as follows: in vitro. As for the experimental part: (§1) Metabolism Studies. Metabolic stability of test compounds was evaluated in liver microsomes from rat (RLM) and human (HLM). This was accomplished by incubating test compounds with microsomes and monitoring disappearance of parent compound as well as metabolite formation over time using LC-MS/MS in Multiple Reaction Monitoring mode (MRM).
(§2) Stock solutions of test compounds were prepared in DMSO at a concentration of 10 mM.
(§3) Total Incubation volume: 100 μL
(§4) Compound concentration: 10 μM
(§5) Protein Concentration: 0.5 mg/mL (0.25 mg/mL for positive controls)
(§6) From the above mix, 70 PL was added to individual wells of 96 well reaction plates and pre-incubated at 37° C. for 5 min. […] Reactions without NADPH and buffer controls (minus NADPH) at 0 min and 60 min were also incubated to rule out non-NADPH metabolism or chemical instability in the incubation buffer. All reactions were terminated using 100 μL of ice-cold acetonitrile containing internal standard (glipizide) at 0, 5, 15, 30 and 60 min.
(§7) Stock solution of noribogaine was prepared in DMSO at a concentration of 20 mM and serially diluted in DMSO to prepare 10, 3, 1, 0.3, 0.1 and 0.03 mM solutions respectively.
(§8) Samples were monitored for parent compounds disappearance and formation of metabolite in MRM mode using LC-MS/MS instrument (API-4000 with Waters UPLC).
(§9) The percent remaining of test compounds and positive control in each sample was determined by considering peak area ratio in the 0 minute sample as 100%.
(§10) In vitro intrinsic clearance (CL′int) (units in mL/min/kg) was calculated using the formula: […]
(§11) For human, monkey, dog, rat and mouse the liver weight are 20 gm, 32 gm, 32 gm, 40 gm and 90 gm respectively.

The nature of series [3]: Buffer control for chemical instability in the incubation buffer. The settings on record: Kphos buffer pH 7.4, 37° C., no microsomes, minus NADPH. In kind it is physicochemical.
A short description of series [4]: Metabolic stability and noribogaine formation in rat liver microsomes (RLM). The settings on record: for Percentage turnover of test compounds (percent remaining): 10 μM, +NADPH. Here is the method: as §1, §2, §3, §4, §5, §6, §7, §8, §9, §10, §11
(In general: Liver microsomes are a subcellular fraction often used to study metabolism.)

Series [5] is described as follows: Plasma pharmacokinetics and brain distribution in male Wistar rats after a single intraperitoneal dose. The settings on record: for AUC(0-t) / Cmax / Tmax: ip, 40 mg/kg; for AUC(0-t): AUClast. Here is the method:
Formulation strengths for intraperitoneal administration was 4 mg/mL. A weighed quantity of compound was combined with an appropriate volume of vehicle (10% ethanol and 90% normal saline), the mixture was warmed to 55° C. and vortexed until a clear yellowish solution was obtained. The dosing volume administered was 10 mL/kg for intraperitoneal route.
Healthy male Wistar rats (8-12 weeks old) weighing between 280 to 300 g were procured from Global, India. Three rats were housed in each cage. […] Temperature and humidity were recorded by auto-controlled data logger system. All the animals were provided laboratory rodent diet (Envigo Research private Ltd, Hyderabad). Reverse osmosis water treated with ultraviolet light was provided ad libitum.
Blood samples (approximately 120 μL) were collected under light isoflurane anesthesia from retro orbital plexus from a set of three rats at specified time intervals. Samples were collected into labeled micro-tubes, containing K2EDTA solution (10 μL of 20% K2EDTA of solution per mL of blood) as an anticoagulant. Plasma was immediately harvested from the blood by centrifugation at 4000 rpm for 10 min at 4±2° C. and stored below −70±10° C. until bioanalysis.
Immediately, after blood collection animals were euthanized with excess CO2 and brain was isolated at each time point. Brain was rinsed three times in ice cold PBS (for 5-10 seconds/rinse using ˜5-10 mL fresh PBS in disposable petri dish for each rinse) and dried on blotting paper. Brain samples were homogenized using ice-cold phosphate buffer saline (pH 7.4) and homogenates were stored below −70±10° C. until analysis. Total homogenate volume was three times the tissue weight.
The extraction procedure for plasma and brain samples and the spiked plasma and brain calibration standards were identical: A 25 PL of study sample or spiked plasma and brain calibration standard was added to individual pre-labeled micro-centrifuge tubes followed by 100 PL of internal standard prepared in Acetonitrile (Glipizide, 500 ng/mL) was added except for blank, where 100 μL of Acetonitrile was added. Samples were vortexed for 5 minutes and then centrifuged for 10 minutes at a speed of 4000 rpm at 4° C. Following centrifugation, 100 μL of clear supernatant was transferred to a 96 well plate and analyzed using LC-MS/MS.
Non-compartmental analysis tool of Phoenix WinNonlin® (Version 7.0) was used to assess the pharmacokinetic parameters. Peak plasma concentrations (Cmax) and time for the peak plasma concentrations (Tmax) were the observed values. The areas under the concentration time curve (AUClast and AUCinf) were calculated by linear trapezoidal rule. The terminal elimination rate constant, ke was determined by regression analysis of the linear terminal portion of the log plasma concentration-time curve.

The mark [6] stands for this setting: 0.08 h after CD3O-ibogamine 40 mg/kg i.p.
The mark [7] stands for this setting: 0.08 h after ibogaine 40 mg/kg i.p.
The mark [8] stands for this setting: 0.5 h after CD3O-ibogamine 40 mg/kg i.p.
[9] abbreviates: 0.5 h after ibogaine 40 mg/kg i.p.
[10] abbreviates: 1 h after CD3O-ibogamine 40 mg/kg i.p.
Where [11] appears, read: 1 h after ibogaine 40 mg/kg i.p.
[12] abbreviates: 2 h after CD3O-ibogamine 40 mg/kg i.p.
Where [13] appears, read: 2 h after ibogaine 40 mg/kg i.p.
The mark [14] stands for this setting: 3 h after CD3O-ibogamine 40 mg/kg i.p.
[15] abbreviates: 3 h after ibogaine 40 mg/kg i.p.
Where [16] appears, read: male, Wistar, rat, in vivo, plasma, analyte after CD3O-ibogamine 40 mg/kg i.p.
Where [17] appears, read: male, Wistar, rat, in vivo, plasma, analyte after ibogaine 40 mg/kg i.p.
The mark [18] stands for this setting: male, Wistar, rat, in vivo, brain, analyte after CD3O-ibogamine 40 mg/kg i.p.
Where [19] appears, read: male, Wistar, rat, in vivo, brain, analyte after ibogaine 40 mg/kg i.p.

Take `[2H]C([2H])Oc1ccc2[nH]c3c(c2c1)CCN1CC2CC(CC)C1C3C2` (stereo not drawn) [CD2HO-ibogamine]: in series [1], the “degradation compared to ibogaine” value was “at least as fast or faster than ibogaine” and the “formation of noribogaine compared to that of ibogaine” value was “as fast or slower”.
For `[2H]C([2H])([2H])C([2H])([2H])Oc1ccc2[nH]c3c(c2c1)CCN1CC2CC(CC)C1C3C2` (stereo not drawn) [CD3CD2O-ibogamine] the same measures were “at least as fast or faster than ibogaine” and “as fast or slower”.
Consider `[2H]C([2H])([2H])COc1ccc2[nH]c3c(c2c1)CCN1CC2CC(CC)C1C3C2` (stereo not drawn) [CD3CH2O-ibogamine], for which, in series [1], the “degradation compared to ibogaine” value is listed as “at least as fast or faster than ibogaine” and the “formation of noribogaine compared to that of ibogaine” value is “as fast or slower”.
For `[2H]COc1ccc2[nH]c3c(c2c1)CCN1CC2CC(CC)C1C3C2` (stereo not drawn) [CDH2O-ibogamine] the same measures were “at least as fast or faster than ibogaine” and “as fast or slower”.
For `[2H]C([2H])(C)Oc1ccc2[nH]c3c(c2c1)CCN1CC2CC(CC)C1C3C2` (stereo not drawn) [CH3CD2O-ibogamine] the same measures were “at least as fast or faster than ibogaine” and “as fast or slower”.
The corresponding values for `[2H]C(C)Oc1ccc2[nH]c3c(c2c1)CCN1CC2CC(CC)C1C3C2` (stereo not drawn) [CH3CDHO-ibogamine] are “at least as fast or faster than ibogaine” and “as fast or slower”.
For `CCOc1ccc2[nH]c3c(c2c1)CCN1C[C@H]2C[C@H](CC)C1[C@H]3C2` [EtO-Ibogamine, 10-ethoxy-ibogamine], the “Percentage turnover of test compounds (percent remaining)” value turned out to be 100% in series [2] (human, microsomes, 0 h, pH 7.4); 103% in series [2] (human, microsomes, 5 min, pH 7.4); 85% in series [2] (human, microsomes, 0.5 h, pH 7.4); 66% in series [2] (human, microsomes, 1 h, pH 7.4); 98% in series [2] (human, microsomes, […], pH 7.4); 100% in series [4] (RLM, 0 min). The “Percentage turnover of test compounds (percent remaining)” value in series [4] (RLM, 5 min) turned out to be 77%; in series [4] (RLM, 15 min), 42%; in series [4] (RLM, 30 min) it was 3%; in series [4] (RLM, 60 min), 0%. Besides, the “% Remaining at 60 min (+NADPH)” value in series [2] (human, microsomes, 1 h, pH 7.4) stood at 66%; in series [4] (RLM, summary), 0%. Also, the “% Remaining at 60 min (−NADPH)” value came to 106% in series [2] (human, microsomes, 1 h, pH 7.4) and 88% in series [4] (RLM, without NADPH). In series [2] (human, microsomes, pH 7.4), this compound displayed a half-life of more than 1 h. Besides, the “CLh, int” value in series [2] (human, pH 7.4) turned out to be 13 mL/min/kg; in series [4] (RLM) it was 445 mL/min/kg. The “rate of conversion of the compound compared to that of ibogaine” value in series [2] (liver microsomes, species not given) is “essentially the same”. Besides, the “% Remaining at 60 min (Buffer)” value in series [3] turned out to be 88%. The compound further yielded a half-life at 10 μM in series [4] (male, rat, microsomes, pH 7.4) of 6 min.
As a reminder, the AUC(0-t) is the area under the concentration-time curve up to a stated or last time point. Read a high AUC(0-t) as more exposure. Broadly, the Cmax is the highest concentration seen after dosing. One may read the Tmax as the time from dosing to the highest level. For `CCC1CC2CC3c4[nH]c5ccc(O)cc5c4CCN(C2)C13` (stereo not drawn) [Noribogaine], the Mean brain concentration in series [5] (setting [6]) was 2997 ng/g; in series [5] (setting [7]), 2383 ng/g; in series [5] (setting [8]) it was 10413 ng/g; in series [5] (setting [9]) it was 14563 ng/g; in series [5] (setting [10]), 13254 ng/g; in series [5] (setting [11]), 17727 ng/g. The Mean brain concentration in series [5] (setting [12]) was found to be 14940 ng/g; in series [5] (setting [13]), 11692 ng/g; in series [5] (setting [14]), 10509 ng/g; in series [5] (setting [15]), 10540 ng/g; in series [5] (male, Wistar, rat, in vivo) it was 17341 ng/g. Moreover, the Mean plasma concentration turned out to be 208 ng/mL in series [5] (setting [6]); 312 ng/mL in series [5] (setting [7]); 677 ng/mL in series [5] (setting [8]); 1179 ng/mL in series [5] (setting [9]); 736 ng/mL in series [5] (setting [10]); 1455 ng/mL in series [5] (setting [11]). In addition, the Mean plasma concentration in series [5] (setting [12]) is given as 690 ng/mL; in series [5] (setting [13]), 846 ng/mL; in series [5] (setting [14]) it was 584 ng/mL; in series [5] (setting [15]), 861 ng/mL; in series [5] (male, Wistar, rat, in vivo), 871 ng/mL. Besides, the AUClast in series [5] (brain, analyte after CD3O-ibogamine 40 mg/kg i.p.) was 36953.27 ng·h/g; in series [5] (brain, analyte after ibogaine 40 mg/kg i.p.) it was 39658.47 ng·h/g. The values for the AUC(0-t) in series [5] (setting [16]) and in series [5] (setting [17]) were 1970 ng·h/mL and 3030 ng·h/mL, respectively. Moreover, the Cmax in series [5] (setting [18]) stood at 14900 ng/g; in series [5] (setting [19]), 17700 ng/g; in series [5] (setting [16]), 736 ng/mL; in series [5] (setting [17]), 1460 ng/mL. The Tmax in series [5] (setting [18]) is 2 h; in series [5] (setting [19]), 1 h; in series [5] (setting [16]), 1 h; in series [5] (setting [17]), 1 h.

(Values after patent US12564597B2 (priority 2020, dated 2026).)
